This note sets out measurements from US20220073536A1 (Rigel Pharmaceuticals, Inc., priority 2003, published 2022).

In the test the test system is cultured human mast cells (CHMC). In words: CHMC low cell density IgE activation: tryptase assay. Type of test: cell-based. As to conditions: Homo sapiens, Mast cell, low cell density CHMC, IgE activation. An outline of the steps: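 Tryptase release, fluorogenic substrate, 30 min RT. Prior anti-IgE stimulation of CHMC, 30 min, 37 °C, after 1 hr preincubation at 1000–1500 cells/well in MT; unstimulated wells received MT.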

[1] abbreviates: tryptase, 3 pt, read-out: LD Tryptase, CHMC, IgE, 3 pt.
[2] abbreviates: tryptase, 8 pt, read-out: LD Tryptase, CHMC, IgE, 8 pt.
[3] abbreviates: tryptase release, 8 pt, read-out: LD Tryptase, CHMC, IgE, 8 pt.

Read-outs that look alike come from different tables or passages of the source. Bounds are passed on as bounds.

Turning to `CCCn1cc2cc(Nc3ncc(F)c(Nc4ccc(Cl)c(Cl)c4)n3)ccc2n1` [Compound 762, N4-(3,4-Dichlorophenyl)-5-fluoro-N2-(2-n-propylindazol-5-yl)-2,4-pyrimidinediamine], the IC50 under setting [1] was less than 10 µM and the IC50 under setting [2] is less than 10 µM.
For the compound `CCCn1cc2cc(Nc3ncc(F)c(Nc4ccc5c(c4)NC(=O)C(C)(C)O5)n3)ccc2n1` [Compound 763, N4-(2,2-Dimethyl-3-oxo-4H-benz[1,4]oxazin-6-yl)-5-fluoro-N2-(2-n-propylindazol-5-yl)-2,4-pyrimidinediamine], the IC50 is less than 10 µM under setting [1] and less than 10 µM under setting [2].
For `CCCn1cc2ccc(Nc3ncc(F)c(Nc4ccc5c(c4)NC(=O)C(C)(C)O5)n3)cc2n1` [Compound 764, N4-(2,2-Dimethyl-3-oxo-4H-benz[1,4]oxazin-6-yl)-5-fluoro-N2-(2-n-propylindazol-6-yl)-2,4-pyrimidinediamine], the IC50 is less than 10 µM under setting [1] and less than 10 µM under setting [2].
As to `CCCn1cc2ccc(Nc3ncc(F)c(Nc4ccc(Cl)c(Cl)c4)n3)cc2n1` [Compound 765, N4-(3,4-Dichlorophenyl)-5-fluoro-N2-(2-n-propylindazol-6-yl)-2,4-pyrimidinediamine], the IC50 is less than 10 µM under setting [1] and less than 10 µM under setting [2].
With `COc1ccc(Nc2nc(Nc3ccc4c(cnn4C(C)C)c3)ncc2F)cc1Cl` [Compound 779, N4-(3-Chloro-4-methoxyphenyl)-5-fluoro-N2-[1-(1-methylethyl)indazol-5-yl]-2,4-pyrimidinediamine], the IC50 under setting [3] was less than 10 µM.
Still for that read-out and setting: under `CC(C)n1ncc2cc(Nc3ncc(F)c(Nc4ccc(Cl)c(Cl)c4)n3)ccc21` [Compound 780, N4-(3,4-Dichlorophenyl)-5-fluoro-N2-[1-(1-methylethyl)indazol-5-yl]-2,4-pyrimidinediamine] stands less than 10 µM; under `CC(C)n1ncc2cc(Nc3ncc(F)c(Nc4ccc5c(c4)NC(=O)C(C)(C)O5)n3)ccc21` [Compound 781, N4-(2,2-Dimethyl-3-oxo-4H-benz[1,4]oxazin-6-yl)-5-fluoro-N2-[1-(1-methylethyl)indazol-5-yl]-2,4-pyrimidinediamine], less than 10 µM; under `COc1cc(Nc2nc(Nc3ccc4c(cnn4C(C)C)c3)ncc2F)ccc1F` [Compound 782, 5-Fluoro-N4-(4-fluoro-3-methoxyphenyl)-N2-[1-(1-methylethyl)indazol-5-yl]-2,4-pyrimidinediamine], less than 10 µM.
The same measure, in the same setting: to `COc1ccc(Nc2nc(Nc3ccc4cnn(C(C)C)c4c3)ncc2F)cc1Cl` [Compound 783, N4-(3-Chloro-4-methoxyphenyl)-5-fluoro-N2-[1-(1-methylethyl)indazol-6-yl]-2,4-pyrimidinediamine] belongs less than 10 µM; to `CC(C)n1ncc2ccc(Nc3ncc(F)c(Nc4ccc(Cl)c(Cl)c4)n3)cc21` [Compound 784, N4-(3,4-Dichlorophenyl)-5-fluoro-N2-[1-(1-methylethyl)indazol-6-yl]-2,4-pyrimidinediamine], less than 10 µM; to `CC(C)n1ncc2ccc(Nc3ncc(F)c(Nc4ccc5c(c4)NC(=O)C(C)(C)O5)n3)cc21` [Compound 785, N4-(2,2-Dimethyl-3-oxo-4H-benz[1,4]oxazin-6-yl)-5-fluoro-N2-[1-(1-methylethyl)indazol-6-yl]-2,4-pyrimidinediamine], less than 10 µM.
On the same count and under the same terms, under `CC(C)n1ncc2ccc(Nc3ncc(F)c(Nc4ccc5c(c4)NC(=O)[C@H](C)O5)n3)cc21` [Compound 786, (S)-N4-[2-Methyl-3-oxo-2H,4H-benz[1,4]oxazin-6-yl]-5-fluoro-N2-[1-(1-methylethyl)indazol-6-yl]-2,4-pyrimidinediamine] stands less than 10 µM.
As for `Cn1nc(N)c2cc(Nc3ncc(F)c(Nc4ccc(Cl)c(Cl)c4)n3)ccc21` [Compound 805, N2-(3-Amino-1-methylindazol-5-yl)-N4-(3,4-dichlorophenyl)-5-fluoro-2,4-pyrimidinediamine], the IC50 under setting [3] is less than 10 µM.
